Measured values reported in patent US5744452A, “γ-L-glutamyl containing immunomodulator compounds and methods therewith” (Wei; Edward T., priority 1995, dated 1998).

Legend:
rats [1] = assay: Subacute toxicity, repeated intramuscular injection, rats; format: in vivo
Method: (§1) To illustrate this point and in preparation for clinical studies, acute and sub-acute toxicity studies were conducted in animals with Bestim according to conditions of good-laboratory practices. Bestim, prepared as a sterile lyophitized powder in ampoules, was dissolved in sterile 0.9% NaCl solution and injected intramuscularly in all experiments.
Subacute Toxicity Studies: In a second set of experiments, Bestim was administered for longer durations, accordingly:
rats: 1 mg/kg and 100 mg/kg, administered intramuscularly daily for 3 months and for 6 months

[2] = system: patient after surgical removal of thymus gland; assay: Case History 3: immunodeficiency caused by surgical removal of the thymus (Patient C); format: in vivo, human
Method: Patient C was in the clinic for immunodeficiency caused by surgical removal of the thymus gland. Bestim was administered in the standard 5 daily intramuscular dose of 0.1 mg.

murine bone marrow cells = assay: .THETA.-antigen expression on murine bone marrow cells (T-lymphocyte precursor differentiation); format: cell-based, CBA strain mice; set-up: .THETA.-antigen expression on murine bone marrow cells: unit not given here; conditions: for .THETA.-antigen expression on murine bone marrow cells: Table 1; for Percent of murine bone marrow cells expressing .THETA.-antigen: Table 5
Method: Differentiation of murine T-lymphocyte precursors was studied by the enumeration of cells expressing early surface differentiation marker .THETA.-antigen. Bone marrow cells were obtained from CBA strain mice killed by cervical dislocation. Cells were washed from femur bones with Hank's balanced salt solution and washed 3 times with RPM 1-1640 medium by centrifugation at 400 xg. Peptides at desired concentrations were incubated with 1×10^6 /ml of obtained cells for 1 hour at 37° C. Theta-antigen (".THETA.-antigen") expression has been determined with antibrain antibodies in a cytotoxicity assay using complement-dependent cell lysis (Terasaki et al., "Microdroplet Lymphocyte Cytotoxicity Test. Manual of Tissue Typing Techniques," National Institutes of Health, Bethesda, Md., pp 50-55, 1972). Dead cells were counted microscopically after eosin staining. […] Its activity was much stronger than that of the reference thymogen peptide.
Differentiation of murine T-lymphocyte precursors was studied by the enumeration of cells expressing early surface differentiation marker--.THETA.-antigen which is an analog of the Thy-1 lymphocyte differentiation antigen. Bone marrow cells were obtained from CBA strain mice killed by cervical dislocation. Cells were washed from femur bones with Hank's balanced salt solution and washed 3 times with RPMI-1640 medium by centrifugation at 400 xg. Peptides at desired concentrations were incubated with 1×10^6 /ml of obtained cells for 1 hour at 37° C. .THETA.-antigen expression were determined with antibrain antibodies in a cytotoxicity assay using complement-dependent cell lysis (Terasaki et al., 1972). Dead cells were counted microscopically after eosin staining untreated bone marrow cells served as a negative control, and murine thymocytes as a positive control.

aminopeptidases = assay: Degradation by aminopeptidases; format: in vitro ADME
murine thymocytes = assay: Murine thymocyte differentiation after intraperitoneal injection; format: in vivo, CBA mice; conditions: for Percent of thymocytes expressing L3T4 / Percent of thymocytes expressing Lyt2 / Percent of thymocytes expressing Thy-1: 24 hours
Method: Bestim was injected into 3-month old CBA mice at doses ranging from 10 ng/kg to 100 μg/kg intraperitoneally. Mice were killed by cervical dislocation 24 hours after injection, the thymus gland removed, and the cells isolated by centrifugation and washed in RPMI-1640 medium. Expression of surface differentiation antigens were measured using monoclonal antibodies to L3T4 (T-helper marker), Lyt 2 (T-cytotoxic marker) and Thy-1 (common T-lymphocyte marker) molecules in a cytotoxicity assay using complement-dependent cell lysis (Terasaki et al., 1972). Dead cells were counted microscopically after eosin staining.

rats [3] = assay: Acute toxicity, single intramuscular dose, rats; format: in vivo; conditions: single 500.0 mg/kg intramuscular, 14 days
Method: as §1
(§2) Acute toxicity: Rodents (mice and rats) and dogs were randomized into groups of equal numbers of males and females. Animals were inspected daily for 14 days after a single dose of Bestim (intramuscular):
(§3) Body weight, overall appearance and behavior were evaluated each day and, at the end of two weeks, macroscopic and histopathological examinations of the internal organs (heart, lungs, pleural and peritoneal cavities, muscles, stomach, small and large intestine, liver, spleen, pancreas, kidneys, bladder, thyroid, brain, skin and testes/ovaries) of all animals were conducted.

[4] = system: patients with prostatitis caused by Chlamydian infection; assay: Trial in prostatitis caused by Chlamydian infection; format: in vivo, human; conditions: fourteen treated, 30 control patients
Method: In addition to these studies, a trial was conducted using Bestim for the treatment of prostatitis caused by Chlamydian infection. Fourteen patients were treated with Bestim with 30 control patients.

mice = assay: Acute toxicity, single intramuscular dose, mice; format: in vivo
Method: as §1, §2, §3

[5] = mice, single 5000.0 mg/kg intramuscular, 14 days

N[C@@H](CCC(=O)N[C@@H](Cc1c[nH]c2ccccc12)C(=O)O)C(=O)O [Bestim, γ-L-glutamyl-L-tryptophan]
morphological appearance of all organs, macroscopic and histological (rats [1]; rats, 1 and 100 mg/kg i.m. daily for 3 and 6 months): normal | body weight (rats [1]; rats, both doses (1 and 100 mg/kg i.m. daily)): slight increase in body weight | tested dose relative to expected doses for therapeutic trials (rats [1]; repeated administration): ~100 fold | T-Lymphocytes (CD3) ([2]; After Bestim Therapy): 49% | Lymphocytes ([2]; After Bestim Therapy (5 daily i.m. 0.1 mg)): 1980 per mm^3 | Lymphocytes ([2]; Before Therapy): 1100 per mm^3 | T-Lymphocytes (CD3) ([2]; Before Therapy): 10% | .THETA.-antigen expression on murine bone marrow cells (murine bone marrow cells; peptide 0.0001 μg/ml, 1 hour 37° C.): 14 ± 1.5 | .THETA.-antigen expression on murine bone marrow cells (murine bone marrow cells; peptide 0.001 μg/ml): 29 ± 2.4 | .THETA.-antigen expression on murine bone marrow cells (murine bone marrow cells; peptide 0.01 μg/ml): 30 ± 2.8 | .THETA.-antigen expression on murine bone marrow cells (murine bone marrow cells; peptide 0.1 μg/ml): 34 ± 1.9 | .THETA.-antigen expression on murine bone marrow cells (murine bone marrow cells; peptide 1.0 μg/ml): 49 ± 1.2 | .THETA.-antigen expression on murine bone marrow cells (murine bone marrow cells; peptide 10 μg/ml): 48 ± 0.8 | .THETA.-antigen expression on murine bone marrow cells (murine bone marrow cells; peptide 100 μg/ml): 47 ± 1.0 | Percent of murine bone marrow cells expressing .THETA.-antigen (murine bone marrow cells; peptide 0.0001 μg/ml): 25% | Percent of murine bone marrow cells expressing .THETA.-antigen (murine bone marrow cells; peptide 0.001 μg/ml): 31% | Percent of murine bone marrow cells expressing .THETA.-antigen (murine bone marrow cells; peptide 0.01 μg/ml): 35% | Percent of murine bone marrow cells expressing .THETA.-antigen (murine bone marrow cells; peptide 0.1 μg/ml): 37% | Percent of murine bone marrow cells expressing .THETA.-antigen (murine bone marrow cells; peptide 1.0 μg/ml): 49% | Percent of murine bone marrow cells expressing .THETA.-antigen (murine bone marrow cells; peptide 10 μg/ml): 52% | Percent of murine bone marrow cells expressing .THETA.-antigen (murine bone marrow cells; peptide 100 μg/ml): 60% | potency relative to thymogen (murine bone marrow cells; dose-response analysis of Table 1 data): at least 500 fold | concentrations with immunostimulatory activity (murine bone marrow cells; preclinical studies, summary): sub-nanomolar concentrations | activity of aminopeptidases against the compound (aminopeptidases): not active | Percent of thymocytes expressing L3T4 (murine thymocytes; 0.01 μg/kg i.p.): 40 ± 8% | Percent of thymocytes expressing Lyt2 (murine thymocytes; 0.01 μg/kg i.p.): 45 ± 5% | Percent of thymocytes expressing Thy-1 (murine thymocytes; 0.01 μg/kg i.p.): 95 ± 3% | Percent of thymocytes expressing L3T4 (murine thymocytes; 0.1 μg/kg i.p.): 55 ± 1% | Percent of thymocytes expressing Lyt2 (murine thymocytes; 0.1 μg/kg i.p.): 44 ± 2% | Percent of thymocytes expressing Thy-1 (murine thymocytes; 0.1 μg/kg i.p.): 89 ± 2% | Percent of thymocytes expressing L3T4 (murine thymocytes; 1 μg/kg i.p.): 54 ± 1% | Percent of thymocytes expressing Lyt2 (murine thymocytes; 1 μg/kg i.p.): 46 ± 1% | Percent of thymocytes expressing Thy-1 (murine thymocytes; 1 μg/kg i.p.): 91 ± 1% | Percent of thymocytes expressing L3T4 (murine thymocytes; 10 μg/kg i.p.): 64 ± 1% | Percent of thymocytes expressing Lyt2 (murine thymocytes; 10 μg/kg i.p.): 47 ± 2% | Percent of thymocytes expressing Thy-1 (murine thymocytes; 10 μg/kg i.p.): 90 ± 1% | Percent of thymocytes expressing L3T4 (murine thymocytes; 100 μg/kg i.p.): 70 ± 1% | Percent of thymocytes expressing Lyt2 (murine thymocytes; 100 μg/kg i.p.): 48 ± 1% | Percent of thymocytes expressing Thy-1 (murine thymocytes; 100 μg/kg i.p.): 91 ± 0% | T-lymphocyte subset induced to differentiate in murine thymus (murine thymocytes; conclusion from Table 3): preferentially induces differentiation of a subset of T-helper lymphocytes | deaths (rats [3]): No deaths were observed | general appearance, behavior, body weight, hematological, biochemical and physiological indices, macroscopic and histopathological examination of internal organs (rats [3]): all within normal limits | inflammation in the prostate [4]: inflammation in the prostate was ameliorated | deaths (mice; [5]): No deaths were observed | general appearance, behavior, body weight, hematological, biochemical and physiological indices, macroscopic and histopathological examination of internal organs (mice; [5]): all within normal limits | tested dose relative to expected doses for therapeutic trials (mice; single administration): ~5,000,000 fold
